{"source": "patent US7550507B2", "about": "“2-(alpha-hydroxypentyl) benzoate and its preparation and use” (Institute of Materia Medica, Chinese Academy of Medical …, priority 2002, dated 2009)", "key": {"[1]": {"tested_on": "platelet aggregation induced by ADP", "assay": "Platelet aggregation induced by ADP in PRP of rats after oral administration (Born method)", "format": "in vivo, male Wistar rats", "conditions": "ADP 5 μmol/L", "description": "Animal: male Wistar rats (260-280 g), from the Animal Center of the Chinese Academy of Medical Sciences.\nPotassium 2-(1-hydroxypentyl)-benzoate, dl-PHPB),\nADP, obtained from Shanghai Institute of Biochemistry, Acedemia Sinica.\nEquipment: Platelet Aggregometer (type: PAT-4A MEGURO-KU, TOKYO, JAPAN.\nGroups: Animals were divided into four groups:\n1) Control group: double-distilled water (400 mg/kg) was adimistrated per os (p.o) 30 minutes prior blood sampling;\n2) Dl-PHPB (400 mg/kg) was administrated per os (p.o) 30 minutes prior to the blood sampling;\n3) Dl-PHPB (400 mg/kg) was administrated per os (p.o) 60 minutes prior to the blood sampling;\n4) Dl-PHPB (200 mg/kg) was administrated per os (p.o) 30 minutes prior to the blood sampling;\nAfter oral administration of dl-PHPB, blood was drawn from the carotid of rats at the time points of 30 and 60 minutes, respectively. Platelet rich plasma (PRP) and platelet poor plasma (PPP) were prepared upon common procedure. According to the method described by of Born, PRP (200 μl) was put on the Platelet Aggregometer and pre-incubated at 37° C. for 5 minutes and then ADP with the final concentration of 5 μmol/L was added to induce platelet aggregation. The maximum aggregation was measured 5 minutes after the addition of ADP."}, "rats of permanent MCAO": {"tested_on": "rats of permanent MCAO", "assay": "Infarction area after local cerebral ischemia (permanent MCAO) in rats, TTC staining", "format": "in vivo, male Wistar rats", "conditions": "24 hours after MCAO; for infarct area (weight percentage of the infarct tissue to the total cerebral tissue), X ± SD: 200 mg/kg p.o. with HCl (pH 1.6) 0.5 ml, 30 min prior to ischemia, control 26.99 ± 3.51", "description": "Animal: male Wistar rats (250-280 g), from the Animal Center of the Chinese Academy of Medical Sciences.\ndl-PHPB was dissolved in double distilled water.\nMethods: Middle cerebral artery occlusion(MCAO): the rats were anesthetized by trichloroacetaldehyde monohydrate (350 mg/kg, ip). The left CCA was exposed through a middle neck incision and was carefully dissected free from surrounding nerves. The ICA and ECA were isolated. Then a 4 cm long 0.26 mm diameter nylon suture was inserted through proximal ECA into ICA for a length of […] from the bifurcation. The wounds were sutured and the rats were released. The room temperature was kept 24-25° C. during the test.\nAnimals were divided into two groups, 1) administration group: dl-PHPB (200 mg/kg) and HCl (pH 1.6) 0.5 ml (to mimic the acidic condition of the human stomach) were administrated per os (p.o) 30 minutes prior to ischemia; 2) Control group: double-distilled water and HCl (pH 1.6) 0.5 ml were administrated per os (p.o) 30 minutes prior to ischemia.\nThe anaesthetized animals were decapitated 24 hours after MCAO. Each brain were rapidly removed and kept in ice-cold saline (0-4° C.). After 10 minutes, the coronal section was sliced into five pieces after the removal of bulbus olfactus, cerebellum, and low brain stem. Upon cutting, the first cut was at the center point of the connection line of the polus anterior of cerebrum and the optic chiasm, the second cut was at the site of optic chiasm, the third was at the site of infundibulum stalk, and the fourth was between the infundibulum stalk and the caudal pole of posterior lobe. The sliced brain was kept in a 5 ml solution of TTC (4%) and K2HPO4 (1M), shaded and incubated at 37° C. for 30 minutes. During the incubation, slices were turned over every 7 -8 minutes. […] The infarcted tissue was separated from the normal tissue and weighed. The infarction area is calculated from the weight percentage of the infarct tissue to the total cerebral tissue."}, "isolated hearts on rats": {"tested_on": "isolated hearts on rats", "assay": "Cardiac arrhythmia induced by ischemia-reperfusion in isolated rat hearts (Langendorff perfusion)", "set-up": "species or system male Wistar rats", "conditions": "for Duration of Arrhythmia: 15 min ischemia, 30 min reperfusion, control 22.5 ± 9.5; for VT Duration: control 8.2 ± 7.9; for VF Incidence: control 33.3; for Spasmic VT Incidence: control 66.7; for VE Incidence: control 83.3; for VT Incidence: control 100", "description": "Animals: male Wistar rats, 250-300 g, from the Animal Center of the Chinese Academy of Medical Sciences, randomly grouped.\nLangendoff perfusion system;\nXD-7100 ECG, Shanghai Medical Electronic Devices Factory\n(1) remove the rat heart quickly after decapitation and put it into K—H solution at 4° C., fix the aorta to the perfusion system;\n(2) perfuse the heart with K—H solution, 6-8 ml/min, 37±0.5° C., under the pressure of about 60 mmH2O;\n(3) connect the two copper electrodes to the cardiac apex and the bottom of the right atria and record the cardiogram;\n(4) perporate under the left anterior descending branch of the coronary artery with 3/0 line;\n(5) perfuse the heart for 10 minutes and record the normal cardiogram;\n(6) ligate the left anterior descending branch of the coronary artery to make myocardial ischemia for 15 minutes;\n(7) nip the line and resume the perfusion, record the change of cardiogram for 30 minutes (mainly on VF and Spasmic VT);\n(8) dissolve the dl-PHPB at pH 1.5 to a desired concentration, add it into K—H solution to do the experiments."}}, "note": "Values joined by “and” are separate entries in the source; they are usually repeats but may differ in a detail not shown here. Equal values may be shown once. Marks after values point to notes of the source that are not given here."}
{"smiles": "CCCCC(O)c1ccccc1C(=O)[O-].[K+]", "note": "(racemic) [dl-PHPB, Potassium dl-2-(α-hydroxypentyl) benzoate]", "values": [{"measurement": "Rate of inhibition", "setting": "[1]; 200 mg/kg p.o., 30 min", "result": 6.62, "unit": "%"}, {"measurement": "Rate of inhibition", "setting": "[1]; 400 mg/kg p.o., 30 min", "result": 19.31, "unit": "%"}, {"measurement": "Rate of inhibition", "setting": "[1]; 400 mg/kg p.o., 60 min", "result": 10.21, "unit": "%"}, {"measurement": "infarct area, individual animals of treated group", "setting": "rats of permanent MCAO; 200 mg/kg p.o. 30 min prior to ischemia, single rats", "result": "18.79% and 26.01% and 20.24% and 18.24% and 22.74% and 16.84% and 15.93%"}, {"measurement": "infarct area (weight percentage of the infarct tissue to the total cerebral tissue), X ± SD", "setting": "rats of permanent MCAO", "result": "19.83 ± 3.53", "unit": "%"}, {"measurement": "infarct area (weight percentage of the infarct tissue to the total cerebral tissue), X ± SD", "setting": "rats of permanent MCAO; listed as dl-PHBP", "result": "19.83±3.53", "unit": "%"}, {"measurement": "Duration of Arrhythmia", "setting": "isolated hearts on rats; 10^−4 mol/L in K-H solution", "result": "1.7 ± 0.6", "unit": "min"}, {"measurement": "VT Duration", "setting": "isolated hearts on rats; 10^−4 mol/L", "result": "1.1 ± 0.6", "unit": "min"}, {"measurement": "VF Incidence", "setting": "isolated hearts on rats; 10^−4 mol/L", "result": 0, "unit": "%"}, {"measurement": "Spasmic VT Incidence", "setting": "isolated hearts on rats; 10^−4 mol/L", "result": "0* %"}, {"measurement": "VE Incidence", "setting": "isolated hearts on rats; 10^−4 mol/L", "result": 42.9, "unit": "%"}, {"measurement": "VT Incidence", "setting": "isolated hearts on rats; 10^−4 mol/L", "result": 100, "unit": "%"}, {"measurement": "Duration of Arrhythmia", "setting": "isolated hearts on rats; 10^−5 mol/L in K-H solution", "result": "23.3 ± 5.8", "unit": "min"}, {"measurement": "VT Duration", "setting": "isolated hearts on rats; 10^−5 mol/L", "result": "5.0 ± 6.5", "unit": "min"}, {"measurement": "VF Incidence", "setting": "isolated hearts on rats; 10^−5 mol/L", "result": 33.3, "unit": "%"}, {"measurement": "Spasmic VT Incidence", "setting": "isolated hearts on rats; 10^−5 mol/L", "result": 50, "unit": "%"}, {"measurement": "VE Incidence", "setting": "isolated hearts on rats; 10^−5 mol/L", "result": 66.7, "unit": "%"}, {"measurement": "VT Incidence", "setting": "isolated hearts on rats; 10^−5 mol/L", "result": 100, "unit": "%"}]}
